According to ChEMBL document CHEMBL1201862, “PubChem BioAssay data set” (2004):
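Five concentrations, 48 hours, 96-well plates. GI50 = concentration required for 50% inhibition of growth.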 Active and inactive are the calls of the source. No stated cut-off is given here; in the data, active = GI50 up to about 1.1 µM and inactive = higher.

Tests used:
Test in all cases: growth of human tumour cells (NCI), 48 h
A498 = system: A498
RPMI-8226 = system: RPMI-8226
OVCAR-8 = system: OVCAR-8
HCT-15 = system: HCT-15
BT-549 = system: BT-549
HL-60 = system: HL-60
SR = system: SR
MOLT-4 = system: MOLT-4
SNB-19 = system: SNB-19
CCRF-CEM = system: CCRF-CEM
MDA-MB-435 = system: MDA-MB-435
SK-MEL-5 = system: SK-MEL-5
NCI/ADR-RES = system: NCI/ADR-RES
UACC-257 = system: UACC-257
Malme-3M = system: Malme-3M
NCI-H23 = system: NCI-H23
MDA-MB-231 = system: MDA-MB-231
SK-MEL-2 = system: SK-MEL-2
SF-268 = system: SF-268
NCI-H226 = system: NCI-H226

Structure (SMILES) | GI50 (A498) | GI50 (RPMI-8226) | GI50 (OVCAR-8) | GI50 (HCT-15) | GI50 (BT-549) | GI50 (HL-60) | GI50 (SR) | GI50 (MOLT-4) | GI50 (SNB-19) | GI50 (CCRF-CEM) | GI50 (MDA-MB-435) | GI50 (SK-MEL-5) | GI50 (NCI/ADR-RES) | GI50 (UACC-257) | GI50 (Malme-3M) | GI50 (NCI-H23) | GI50 (MDA-MB-231) | GI50 (SK-MEL-2) | GI50 (SF-268) | GI50 (NCI-H226)
Cc1cc(S(=O)(=O)Nc2nnc3ccccn23)c(S)cc1Cl | 25 µM (inactive) | > 100 µM (inactive) | > 100 µM (inactive) | > 100 µM | > 100 µM (inactive) | > 100 µM (inactive) | > 100 µM (inactive) | 71.6 µM (inactive) | > 100 µM (inactive) | > 10 µM (inactive) | > 100 µM (inactive) | > 100 µM (inactive) | > 100 µM (inactive) | > 100 µM (inactive) | > 100 µM (inactive) | > 100 µM (inactive) | > 100 µM (inactive) | 79.4 µM (inactive) | – | –
c1ccc2c(c1)ccc1ncccc12 | 55.8 µM (inactive) | > 100 µM (inactive) | > 100 µM (inactive) | 58.2 µM | 47.1 µM (inactive) | > 100 µM (inactive) | 58.2 µM (inactive) | > 100 µM (inactive) | 85.7 µM (inactive) | – | > 100 µM (inactive) | 75.2 µM (inactive) | > 100 µM (inactive) | > 100 µM (inactive) | > 100 µM (inactive) | > 100 µM (inactive) | > 100 µM (inactive) | > 100 µM (inactive) | > 100 µM (inactive) | > 100 µM (inactive)
COc1ccc2c(c1)CC[C@@H]1[C@@H]2CC[C@]2(C)C(=O)/C(=C/c3cc(OC)c(OC)c(OC)c3)C[C@@H]12 | 59 µM (inactive) | > 100 µM (inactive) | – | 70 µM | 26.3 µM (inactive) | > 100 µM (inactive) | 15.2 µM (inactive) | 95.9 µM (inactive) | 52.6 µM (inactive) | – | > 100 µM (inactive) | 71.3 µM (inactive) | 15.4 µM (inactive) | – | 17.8 µM (inactive) | 25 µM (inactive) | 18.1 µM (inactive) | 19 µM (inactive) | 0.0149 µM (active) | –
COc1cc(C2SCC(=O)N2c2cc(Cl)c(Cl)cc2Cl)cc(OC)c1OC (stereo unspecified) | 63 µM (inactive) | 32.4 µM (inactive) | 66.5 µM (inactive) | 29.7 µM | 25.4 µM (inactive) | 28.2 µM (inactive) | 26.4 µM (inactive) | 23.9 µM (inactive) | 51.8 µM (inactive) | 25.4 µM (inactive) | 30.5 µM (inactive) | 25.6 µM (inactive) | 34.4 µM (inactive) | 36.8 µM (inactive) | – | 50.5 µM (inactive) | > 100 µM (inactive) | 63 µM (inactive) | 90.2 µM (inactive) | 63.1 µM (inactive)
N#Cc1c2ccc([N+](=O)[O-])cc2c(=O)n2c1sc1ccccc12 | 13.5 µM (inactive) | 9.93 µM (inactive) | 35.2 µM (inactive) | 22.2 µM | 19.9 µM (inactive) | 19.3 µM (inactive) | 3.94 µM (inactive) | – | 10.5 µM (inactive) | 7.29 µM (inactive) | 57.7 µM (inactive) | 22 µM (inactive) | 18.4 µM (inactive) | 78.5 µM (inactive) | – | 15.2 µM (inactive) | 17.2 µM (inactive) | 17.3 µM (inactive) | 56.2 µM (inactive) | 17 µM (inactive)
COc1ccc(C2OC[C@H]3O[C@@H](OCc4ccccc4)[C@H](O)[C@@H](O)[C@@H]3O2)cc1 (stereo partly specified) | > 100 µM (inactive) | 76.9 µM (inactive) | > 100 µM (inactive) | > 100 µM | > 100 µM (inactive) | – | 67.9 µM (inactive) | 41.9 µM (inactive) | > 100 µM (inactive) | 52.7 µM (inactive) | > 100 µM (inactive) | 58.2 µM (inactive) | > 100 µM (inactive) | > 100 µM (inactive) | – | > 100 µM (inactive) | > 100 µM (inactive) | > 100 µM (inactive) | > 100 µM (inactive) | 23.2 µM (inactive)
CN1CCOC(c2ccc(Cl)cc2)O1 (stereo unspecified) | > 100 µM (inactive) | – | > 100 µM (inactive) | > 100 µM | > 100 µM (inactive) | – | > 100 µM (inactive) | > 100 µM (inactive) | > 100 µM (inactive) | > 100 µM (inactive) | > 100 µM (inactive) | > 100 µM (inactive) | > 100 µM (inactive) | > 100 µM (inactive) | > 100 µM (inactive) | > 100 µM (inactive) | > 100 µM (inactive) | > 100 µM (inactive) | > 100 µM (inactive) | > 100 µM (inactive)
OCc1cc2c(ccc3sc4ccc5sc6ccc7ncccc7c6c5c4c32)s1 | 23.5 µM (inactive) | 13.6 µM (inactive) | 12.1 µM (inactive) | 10.7 µM | 14.3 µM (inactive) | 10.1 µM (inactive) | 10.5 µM (inactive) | 11.5 µM (inactive) | 11.3 µM (inactive) | 19.7 µM (inactive) | 24.3 µM (inactive) | 4.08 µM (inactive) | 21.7 µM (inactive) | 13.6 µM (inactive) | – | – | 4.17 µM (inactive) | 14.5 µM (inactive) | – | 30.1 µM (inactive)
CC(=O)Nc1ccc2[nH]c(C(=O)N3CC(CCl)c4c3cc([N+](=O)[O-])c3ccccc43)cc2c1 (stereo unspecified) | 0.863 µM (active) | 1.02 µM (active) | 3.1 µM (inactive) | 6.47 µM | 3.87 µM (inactive) | 1.01 µM (active) | 0.349 µM (active) | 0.889 µM (active) | > 30.2 µM (inactive) | 0.879 µM (active) | 14.7 µM (inactive) | 5.89 µM (inactive) | 4.45 µM (inactive) | > 100 µM (inactive) | – | 8.57 µM (inactive) | > 51.4 µM (inactive) | 13.8 µM (inactive) | 1.98 µM (inactive) | 9.38 µM (inactive)
CO/C(=N\N=C(/C)C(F)(F)F)c1ccncc1 | 15.5 µM (inactive) | > 100 µM (inactive) | > 100 µM (inactive) | > 100 µM | > 100 µM (inactive) | > 100 µM (inactive) | > 100 µM (inactive) | 44.5 µM (inactive) | > 100 µM (inactive) | > 100 µM (inactive) | > 100 µM (inactive) | > 100 µM (inactive) | > 100 µM (inactive) | – | > 100 µM (inactive) | > 100 µM (inactive) | > 100 µM (inactive) | > 100 µM (inactive) | – | > 100 µM (inactive)
NC(=O)C1CCCN1C(=O)C(Cc1c[nH]cn1)NC(=O)C1CCCC1 (stereo unspecified) | 23.4 µM (inactive) | > 100 µM (inactive) | > 100 µM (inactive) | > 100 µM | > 100 µM (inactive) | > 100 µM (inactive) | > 100 µM (inactive) | > 100 µM (inactive) | > 100 µM (inactive) | > 100 µM (inactive) | > 100 µM (inactive) | > 100 µM (inactive) | > 100 µM (inactive) | – | > 100 µM (inactive) | > 100 µM (inactive) | > 100 µM (inactive) | – | – | > 100 µM (inactive)
CNC1(c2cc3ccccc3s2)CCCCC1 | 33.3 µM (inactive) | – | 37.2 µM (inactive) | 31.8 µM | 67 µM (inactive) | < 0.01 µM (active) | 25 µM (inactive) | 42.2 µM (inactive) | 41.8 µM (inactive) | < 0.01 µM (active) | 16.8 µM (inactive) | 16.3 µM (inactive) | 33.3 µM (inactive) | 18.2 µM (inactive) | – | 57.4 µM (inactive) | 23.2 µM (inactive) | – | 14.2 µM (inactive) | 32.7 µM (inactive)
COC1/C=C/C(C)C(OC)CC(O)/C=C/C(C)C(C(C)C(OC)C(C)CCC(=O)C(C)C(C/C=C/N(C)C=O)OC)OC(=O)/C=C/C=C(\C)CC(OC)C(OC)C2=CC(=O)O[C@@H](C(C)C(OC)C1)[C@H]2O (stereo partly specified) | 0.0289 µM (active) | 0.346 µM (active) | 0.0514 µM (active) | 0.015 µM | 0.0578 µM (active) | 0.0299 µM (active) | 0.0617 µM (active) | 0.0681 µM (active) | 0.0519 µM (active) | 0.0499 µM (active) | 0.0532 µM (active) | 0.0387 µM (active) | 0.0522 µM (active) | 0.0448 µM (active) | 0.04 µM (active) | 0.0512 µM (active) | 0.0366 µM (active) | – | 0.0442 µM (active) | 0.0194 µM (active)
COC(=O)C(Cc1c[nH]c2ccccc12)NP(=O)(O)OCC1OC(n2cc(Br)c(=O)[nH]c2=O)CC1O (stereo unspecified) | > 100 µM (inactive) | – | > 100 µM (inactive) | > 100 µM | > 100 µM (inactive) | > 100 µM (inactive) | > 100 µM (inactive) | > 100 µM (inactive) | > 100 µM (inactive) | > 100 µM (inactive) | > 100 µM (inactive) | > 100 µM (inactive) | > 100 µM (inactive) | > 100 µM (inactive) | > 100 µM (inactive) | > 100 µM (inactive) | > 100 µM (inactive) | > 100 µM (inactive) | > 100 µM (inactive) | > 100 µM (inactive)
Cc1sc2nc3n(c(=O)c2c1C)N=CN(c1ccc(F)cc1)C3 | 26.9 µM (inactive) | > 100 µM (inactive) | 65.6 µM (inactive) | > 100 µM | > 100 µM (inactive) | – | > 100 µM (inactive) | > 100 µM (inactive) | 38 µM (inactive) | > 100 µM (inactive) | > 100 µM (inactive) | > 100 µM (inactive) | > 100 µM (inactive) | > 100 µM (inactive) | 25 µM (inactive) | > 100 µM (inactive) | 59 µM (inactive) | > 100 µM (inactive) | 81.7 µM (inactive) | > 100 µM (inactive)
